Measured values published in US20250388553A1 (Incyte Corporation, priority 2018, published 2025).
pIC50: −log10 of the molar value. Structures can show the parent of a compound that is named as a salt. Where two headings read alike, the source gives them in different places.

How the values were obtained:
[1] = biological target: PI3Kδ (p1106/p85a) Recombinant Human Protein (Homo sapiens (Human), UniProt O00329); test: PI3Kδ scintillation proximity assay; format: biochemical
[2] = system: Phosphorylated Ribosomal Protein S6 (RPS6) in THP-1 cells; test: THP-1 RPS6 ELISA assay; format: cell-based, Human; details: THP-1 cells, 10 nM MCP-1, phospho-RPS6 ELISA, read-out: PI3Kγ_THP1_RPS6_ELISA IC50
Excerpt: Example A. THP-1 RPS6 ELISA Assay
To measure the Phosphorylated Ribosomal Protein S6 (RPS6) in cell lysates, THP-1 cells (Human Acute Monocytic Leukemia) are purchased from ATCC (Manassas, VA) and maintained in RPMI with 10% FBS (Gibco/Life Technologies, Carlsbad, CA). For the assay, THP-1 cells are serum starved overnight in RPMI, then plated in RPMI (2×10^5 cells/well in […]) into 96-well flat-bottom tissue culture treated plates (Corning, Corning, NY), in the presence or absence of a concentration range of test compounds. Covered plates are incubated for 2 hours at 37° C., 5% CO2 then treated with or without 10 nM MCP-1(MYBioSource, San Diego, CA) for 15 minutes at 37° C., 5% CO2. Plates are centrifuged at 1600 RPM and supernatants are removed. Cells are lysed in Lysis Buffer (Cell Signaling, Danvers, MA) with Protease Inhibitor (Calbiochem/EMD, Germany), PMSF (Sigma, St Louis MO), HALTS (Thermo Fisher, Rockford, IL) for 30 min on wet ice. Cell lysates are frozen at −80° C. before testing. The lysates are tested in the Human/Mouse/Rat Phospho-RPS6 ELISA (R&D Systems, Inc. Minn, MN). The plate is measured using a microplate reader (SpectraMax M5—Molecular Devices, LLC Sunnyvale, CA) set to 450 nm with a wavelength correction of 540. IC50 determination is performed by fitting the curve of inhibitor percent inhibition versus the log of the inhibitor concentration using the GraphPad Prism 5.0 software.
The compounds of the Examples were tested in the assays described in Examples A, B and C and found to have the IC50s are shown in Tables A1, A2, A3 and A4.

[3] = biological target: PI3Kγ (p110γ) Recombinant Human Protein (Homo sapiens (Human), UniProt P48736); test: PI3K-γ scintillation proximity assay; format: biochemical
Chain of PI3Kγ (p110γ) Recombinant Human Protein (P48736 whole entry): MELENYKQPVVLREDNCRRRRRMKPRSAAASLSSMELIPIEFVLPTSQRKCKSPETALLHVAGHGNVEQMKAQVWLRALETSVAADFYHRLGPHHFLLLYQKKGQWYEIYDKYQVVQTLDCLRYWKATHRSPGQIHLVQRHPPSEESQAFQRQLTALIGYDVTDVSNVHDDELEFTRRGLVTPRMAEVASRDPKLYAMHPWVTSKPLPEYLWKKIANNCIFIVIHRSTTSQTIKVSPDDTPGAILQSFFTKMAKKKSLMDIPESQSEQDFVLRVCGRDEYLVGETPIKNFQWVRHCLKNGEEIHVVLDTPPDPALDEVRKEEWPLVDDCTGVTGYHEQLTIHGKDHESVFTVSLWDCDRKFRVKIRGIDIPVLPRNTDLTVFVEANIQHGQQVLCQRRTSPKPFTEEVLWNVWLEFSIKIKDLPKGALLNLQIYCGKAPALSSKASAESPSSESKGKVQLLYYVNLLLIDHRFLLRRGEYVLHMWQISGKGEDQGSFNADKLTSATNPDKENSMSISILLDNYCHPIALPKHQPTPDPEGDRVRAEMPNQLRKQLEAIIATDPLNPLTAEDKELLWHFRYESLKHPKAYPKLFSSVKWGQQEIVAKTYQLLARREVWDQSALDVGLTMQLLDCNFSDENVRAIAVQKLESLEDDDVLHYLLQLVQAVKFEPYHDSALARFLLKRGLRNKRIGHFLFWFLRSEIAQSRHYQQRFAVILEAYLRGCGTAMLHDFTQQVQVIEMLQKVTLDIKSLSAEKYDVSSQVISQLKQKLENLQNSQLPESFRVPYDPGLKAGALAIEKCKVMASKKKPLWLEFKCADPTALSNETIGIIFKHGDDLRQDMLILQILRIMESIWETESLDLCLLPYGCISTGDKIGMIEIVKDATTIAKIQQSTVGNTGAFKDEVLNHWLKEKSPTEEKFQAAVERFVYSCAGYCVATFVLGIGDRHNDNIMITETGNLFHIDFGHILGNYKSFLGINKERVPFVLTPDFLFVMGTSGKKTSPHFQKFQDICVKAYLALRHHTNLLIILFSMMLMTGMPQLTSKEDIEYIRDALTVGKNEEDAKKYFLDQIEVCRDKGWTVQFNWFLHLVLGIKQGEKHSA

[4] = Table A1, scintillation proximity assay, recombinant human PI3Kδ
[5] = Table A1, scintillation proximity assay, recombinant human p110γ
[6] = Table A2, scintillation proximity assay, recombinant human PI3Kδ
[7] = Table A2, scintillation proximity assay, recombinant human p110γ
[8] = Table A3, scintillation proximity assay, recombinant human PI3Kδ
[9] = Table A3, scintillation proximity assay, recombinant human p110γ

Chain of PI3Kδ (p1106/p85a) Recombinant Human Protein (O00329 whole entry): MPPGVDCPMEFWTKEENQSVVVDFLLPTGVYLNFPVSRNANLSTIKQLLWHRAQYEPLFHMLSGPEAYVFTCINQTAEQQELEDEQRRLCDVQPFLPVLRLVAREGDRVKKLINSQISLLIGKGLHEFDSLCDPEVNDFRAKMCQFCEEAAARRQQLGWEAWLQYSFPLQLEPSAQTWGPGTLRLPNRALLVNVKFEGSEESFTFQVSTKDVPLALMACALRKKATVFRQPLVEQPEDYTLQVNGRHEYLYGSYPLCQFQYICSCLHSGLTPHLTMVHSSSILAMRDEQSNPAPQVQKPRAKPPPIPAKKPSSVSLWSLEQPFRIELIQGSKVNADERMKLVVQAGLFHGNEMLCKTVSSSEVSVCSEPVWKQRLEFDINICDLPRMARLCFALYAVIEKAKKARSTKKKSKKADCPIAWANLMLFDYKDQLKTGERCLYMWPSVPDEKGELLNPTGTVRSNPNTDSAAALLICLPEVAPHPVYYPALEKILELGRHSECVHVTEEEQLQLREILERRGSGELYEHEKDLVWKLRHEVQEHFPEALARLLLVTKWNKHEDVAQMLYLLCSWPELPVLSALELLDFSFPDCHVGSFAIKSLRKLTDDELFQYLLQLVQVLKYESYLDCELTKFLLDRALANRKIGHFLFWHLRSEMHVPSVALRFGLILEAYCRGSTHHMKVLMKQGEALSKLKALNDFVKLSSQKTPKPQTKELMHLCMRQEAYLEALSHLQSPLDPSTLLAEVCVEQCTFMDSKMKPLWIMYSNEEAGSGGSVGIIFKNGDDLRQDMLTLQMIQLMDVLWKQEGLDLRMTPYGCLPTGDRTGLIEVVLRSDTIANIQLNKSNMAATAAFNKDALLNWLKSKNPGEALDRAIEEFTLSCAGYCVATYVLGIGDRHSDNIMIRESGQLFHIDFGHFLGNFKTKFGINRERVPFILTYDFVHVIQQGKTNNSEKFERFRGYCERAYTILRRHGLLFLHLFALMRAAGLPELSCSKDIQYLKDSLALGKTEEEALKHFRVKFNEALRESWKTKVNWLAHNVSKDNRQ
Chain of PI3Kδ (p1106/p85a) Recombinant Human Protein (P27986 whole entry partner): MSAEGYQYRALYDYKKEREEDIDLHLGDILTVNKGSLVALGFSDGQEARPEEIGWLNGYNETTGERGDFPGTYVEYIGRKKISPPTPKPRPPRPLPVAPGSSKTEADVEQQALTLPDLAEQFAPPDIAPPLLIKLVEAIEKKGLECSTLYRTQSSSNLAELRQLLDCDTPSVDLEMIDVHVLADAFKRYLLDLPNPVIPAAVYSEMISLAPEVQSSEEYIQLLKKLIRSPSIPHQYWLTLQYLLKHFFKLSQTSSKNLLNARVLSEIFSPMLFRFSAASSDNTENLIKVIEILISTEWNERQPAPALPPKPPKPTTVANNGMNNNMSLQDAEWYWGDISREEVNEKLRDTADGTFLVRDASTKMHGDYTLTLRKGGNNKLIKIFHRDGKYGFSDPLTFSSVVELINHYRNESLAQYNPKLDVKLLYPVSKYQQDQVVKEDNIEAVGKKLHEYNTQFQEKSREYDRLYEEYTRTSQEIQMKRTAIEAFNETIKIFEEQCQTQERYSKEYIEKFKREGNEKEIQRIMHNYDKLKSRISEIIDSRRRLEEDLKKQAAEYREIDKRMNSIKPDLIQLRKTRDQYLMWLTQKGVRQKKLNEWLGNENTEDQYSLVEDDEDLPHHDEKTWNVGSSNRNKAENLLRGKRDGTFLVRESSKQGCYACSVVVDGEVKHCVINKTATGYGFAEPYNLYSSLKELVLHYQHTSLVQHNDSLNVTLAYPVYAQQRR

Row | Compound | pIC50 [1, 4] | pIC50 [3, 5] | pIC50 [1, 8] | pIC50 ([2]; Homo sapiens, Table A3) | pIC50 [3, 9] | further results
1 | Cc1ccc(C(O)(C(N)=O)C(F)(F)F)cc1-c1cnc(N)c(C(=O)N[C@H]2CC[C@@](O)(C(F)(F)F)CC2)n1 (stereo partly drawn) [Example 18, 3-amino-6-(5-(3-amino-1,1,1-trifluoro-2-hydroxy-3-oxopropan-2-yl)-2-methylphenyl)-N-((1r,4r)-4-hydroxy-4-(trifluoromethyl)cyclohexyl)pyrazine-2-carboxamide trifluoroacetate] | > 7.00 | > 7.00 |  |  |  | pIC50 ([2]; Table A1): > 7.00
2 | Cc1ccc(C(O)(C(N)=O)C(F)(F)F)cc1-c1cnc(N)c(C(=O)N[C@H]2CC[C@H](C(C)(C)O)CC2)n1 (stereo partly drawn) [Example 19, 3-amino-6-(5-(3-amino-1,1,1-trifluoro-2-hydroxy-3-oxopropan-2-yl)-2-methylphenyl)-N-((1r,4r)-4-(2-hydroxypropan-2-yl)cyclohexyl)pyrazine-2-carboxamide trifluoroacetate] | > 7.00 | > 7.00 |  |  |  | pIC50 ([2]; Table A1): > 7.00
3 | CO[C@H]1CC[C@H](NC(=O)c2nc(-c3cc(C(O)(C(N)=O)C(F)(F)F)ccc3C)cnc2N)CC1 (stereo partly drawn) [Example 22, 3-amino-6-(5-(3-amino-1,1,1-trifluoro-2-hydroxy-3-oxopropan-2-yl)-2-methylphenyl)-N-((1r,4r)-4-methoxycyclohexyl)pyrazine-2-carboxamide trifluoroacetate] | > 7.00 | > 7.00 |  |  |  | pIC50 ([2]; Table A1): > 7.00
4 | COC[C@H]1CCN1C(=O)c1nc(-c2cc(C(O)(C(N)=O)C(F)(F)F)ccc2C)cnc1N (stereo partly drawn) [Example 26, 2-(3-(5-amino-6-((R)-2-(methoxymethyl)azetidine-1-carbonyl)pyrazin-2-yl)-4-methylphenyl)-3,3,3-trifluoro-2-hydroxypropanamide] | > 7.00 | > 7.00 |  |  |  | pIC50 ([2]; Homo sapiens, Table A1): 6.30 to 7.00
5 | Cc1ccc(C(O)(C(N)=O)C(F)F)cc1-c1cnc(N)c(C(=O)NC(C)C)n1 (stereo not drawn) [Example 31] | > 7.00 | > 7.00 |  |  |  | pIC50 ([2]; Table A1): > 7.00
6 | CC(=O)NCC(O)(c1ccc(C)c(-c2cnc(N)c(C(=O)NC(C)C)n2)c1)C(F)(F)F (stereo not drawn) [Example 39, 6-(5-(3-Acetamido-1,1,1-trifluoro-2-hydroxypropan-2-yl)-2-methylphenyl)-3-amino-N-isopropylpyrazine-2-carboxamide trifluoroacetate] | > 7.00 | > 7.00 |  |  |  | pIC50 ([2]; Homo sapiens, Table A1): 6.30 to 7.00
7 | Cc1ccc(C(O)(CNC(=O)CF)C(F)(F)F)cc1-c1cnc(N)c(C(=O)NC(C)C)n1 (stereo not drawn) [Example 40, 3-Amino-N-isopropyl-6-(2-methyl-5-(1,1,1-trifluoro-3-(2-fluoroacetamido)-2-hydroxypropan-2-yl)phenyl)pyrazine-2-carboxamide trifluoroacetate] | > 7.00 | > 7.00 |  |  |  | pIC50 ([2]; Homo sapiens, Table A1): 6.30 to 7.00
8 | Cc1ccc(C(O)(CNC(=O)CC#N)C(F)(F)F)cc1-c1cnc(N)c(C(=O)NC(C)C)n1 (stereo not drawn) [Example 42, 3-Amino-6-(5-(3-(2-cyanoacetamido)-1,1,1-trifluoro-2-hydroxypropan-2-yl)-2-methylphenyl)-N-isopropylpyrazine-2-carboxamide trifluoroacetate] | > 7.00 | > 7.00 |  |  |  | pIC50 ([2]; Homo sapiens, Table A1): 6.30 to 7.00
9 | CCCc1nc(-c2cc(C(O)(C(N)=O)C(F)(F)F)ccc2C)cnc1N (stereo not drawn) [Example 45, 2-(3-(5-amino-6-propylpyrazin-2-yl)-4-methylphenyl)-3,3,3-trifluoro-2-hydroxypropanamide] |  |  |  |  |  | pIC50 [1, 6]: 6.30 to 7.00; pIC50 ([2]; Homo sapiens, Table A2): 6.30 to 7.00; pIC50 [3, 7]: > 7.00
10 | Cc1ccc(C(O)(C(N)=O)C(F)(F)F)cc1-c1cnc(N)c(C#CC(C)C)n1 (stereo not drawn) [Example 49, 2-(3-(5-amino-6-(3-methylbut-1-ynyl)pyrazin-2-yl)-4-methylphenyl)-3,3,3-trifluoro-2-hydroxypropanamide] |  |  |  |  |  | pIC50 [1, 6]: > 7.00; pIC50 ([2]; Homo sapiens, Table A2): 6.30 to 7.00; pIC50 [3, 7]: > 7.00
11 | Cc1ccc(C(O)(C(N)=O)C(F)(F)F)cc1-c1cnc(N)c(C#Cc2ccn[nH]2)n1 (stereo not drawn) [Example 52, 2-(3-(6-((1H-pyrazol-5-yl)ethynyl)-5-aminopyrazin-2-yl)-4-methylphenyl)-3,3,3-trifluoro-2-hydroxypropanamide] |  |  |  |  |  | pIC50 [1, 6]: > 7.00; pIC50 ([2]; Homo sapiens, Table A2): 6.30 to 7.00; pIC50 [3, 7]: > 7.00
12 | Cc1ccc(C(O)(C(N)=O)C(F)(F)F)cc1-c1cnc(N)c(C#Cc2cncn2C)n1 (stereo not drawn) [Example 53, 2-(3-(5-amino-6-((1-methyl-1H-imidazol-5-yl)ethynyl)pyrazin-2-yl)-4-methylphenyl)-3,3,3-trifluoro-2-hydroxypropanamide] |  |  |  |  |  | pIC50 [1, 6]: > 7.00; pIC50 ([2]; Table A2): 6.30 to 7.00; pIC50 [3, 7]: > 7.00
13 | Cc1ncc(-c2nc(-c3cc(C(O)(C(N)=O)C(F)(F)F)ccc3C)cnc2N)o1 (stereo not drawn) [Example 70, 2-(3-(5-amino-6-(2-methyloxazol-5-yl)pyrazin-2-yl)-4-methylphenyl)-3,3,3-trifluoro-2-hydroxypropanamide trifluoroacetate] |  |  | > 7.00 | > 7.00 | > 7.00 | 
14 | Cc1ccc(C(O)(C(N)=O)C(F)(F)F)cc1-c1cnc(N)c(-c2cnn(C)c2)n1 (stereo not drawn) [Example 71, 2-(3-(5-amino-6-(1-methyl-1H-pyrazol-4-yl)pyrazin-2-yl)-4-methylphenyl)-3,3,3-trifluoro-2-hydroxypropanamide trifluoroacetate] |  |  | > 7.00 | > 7.00 | > 7.00 | 
15 | Cc1ccc(C(O)(C(N)=O)C(F)(F)F)cc1-c1cnc(N)c(-c2cnn(C)n2)n1 (stereo not drawn) [Example 73, 2-(3-(5-amino-6-(2-methyl-2H-1,2,3-triazol-4-yl)pyrazin-2-yl)-4-methylphenyl)-3,3,3-trifluoro-2-hydroxypropanamide trifluoroacetate] |  |  | > 7.00 | > 7.00 | > 7.00 | 
16 | Cc1ccc(C(O)(C(N)=O)C(F)(F)F)cc1-c1cnc(N)c(-c2cnnn2C)n1 (stereo not drawn) [Example 74, 2-(3-(5-amino-6-(1-methyl-1H-1,2,3-triazol-5-yl)pyrazin-2-yl)-4-methylphenyl)-3,3,3-trifluoro-2-hydroxypropanamide trifluoroacetate] |  |  | > 7.00 | > 7.00 | > 7.00 | 
17 | Cc1ccc(C(O)(C(N)=O)C(F)(F)F)cc1-c1cnc(N)c(-c2cnn(CC(F)(F)F)c2)n1 (stereo not drawn) [Example 75, 2-(3-(5-amino-6-(1-(2,2,2-trifluoroethyl)-1H-pyrazol-4-yl)pyrazin-2-yl)-4-methylphenyl)-3,3,3-trifluoro-2-hydroxypropanamide trifluoroacetate] |  |  | > 7.00 | > 7.00 | > 7.00 | 
18 | Cc1ccc(C(O)(C(N)=O)C(F)(F)F)cc1-c1cnc(N)c(-c2cnn(C(C)(C)C#N)c2)n1 (stereo not drawn) [Example 76, 2-(3-(5-amino-6-(1-(2-cyanopropan-2-yl)-1H-pyrazol-4-yl)pyrazin-2-yl)-4-methylphenyl)-3,3,3-trifluoro-2-hydroxypropanamide trifluoroacetate] |  |  | > 7.00 | > 7.00 | > 7.00 | 
19 | Cc1ccc(C(O)(C(N)=O)C(F)(F)F)cc1-c1cnc(N)c(-c2cnn(C3CCOCC3)c2)n1 (stereo not drawn) [Example 77, 2-(3-(5-amino-6-(1-(tetrahydro-2H-pyran-4-yl)-1H-pyrazol-4-yl)pyrazin-2-yl)-4-methylphenyl)-3,3,3-trifluoro-2-hydroxypropanamide trifluoroacetate] |  |  | > 7.00 | > 7.00 | > 7.00 | 
20 | Cc1ccc(C(O)(C(N)=O)C(F)(F)F)cc1-c1cnc(N)c(-c2cnn(CC3(C#N)CC3)c2)n1 (stereo not drawn) [Example 78, 2-(3-(5-amino-6-(1-((1-cyanocyclopropyl)methyl)-1H-pyrazol-4-yl)pyrazin-2-yl)-4-methylphenyl)-3,3,3-trifluoro-2-hydroxypropanamide trifluoroacetate] |  |  |  | > 7.00 |  | pIC50 [1]: > 7.00; pIC50 [3]: > 7.00
21 | COCCn1cc(-c2nc(-c3cc(C(O)(C(N)=O)C(F)(F)F)ccc3C)cnc2N)cn1 (stereo not drawn) [Example 79, 2-(3-(5-amino-6-(1-(2-methoxyethyl)-1H-pyrazol-4-yl)pyrazin-2-yl)-4-methylphenyl)-3,3,3-trifluoro-2-hydroxypropanamide trifluoroacetate] |  |  | > 7.00 | > 7.00 | > 7.00 | 
